Tests used:
IL-1β = assay: PBMC assay, IL-1β release after LPS stimulation; assay type: cell-based; conditions: human PBMCs, 30 min preincubation, 100 ng/ml LPS for 6 hrs, supernatant, MSD technology, read-out: IL1β AC50
Procedure: The activity of a compound according to the present invention can be assessed by in vitro methods.
(§1) Peripheral venous blood was collected from healthy individuals and human peripheral blood mononuclear cells (PBMCs) were isolated from blood by Ficoll-Histopaque (Sigma-Aldrich, A0561) density gradient centrifugation. After isolation, PBMCs were stored in liquid nitrogen for later use. Upon thawing, PBMC cell viability was determined in growth medium (RPMI media supplemented with 10% fetal bovine serum, 1% Pen-Strep and 1% L-glutamine). Compounds were spotted in a 1:3 serial dilution in DMSO and diluted to the final concentration in 30 μl medium in 96 well plates (Falcon, 353072). PBMCs were added at a density of 7.5×10^4 cells per well and incubated for 30 min in a 5% CO2 incubator at 37 ° C. LPS stimulation was performed by addition of 100 ng/ml LPS (final concentration, Invivogen, tlrl-smlps) for 6 hrs followed by collection of cellular supernatant and the analysis of IL-1β[…] and TNF cytokines levels (uμ) via MSD technology according to manufacturers' guidelines (MSD, K151A0H).
(§2) IC50 and AC50 values (for IL-1β) and EC50 and AC50 values (TNF) were obtained on compounds of the invention/examples, and the AC50 values are depicted in the following table: […]

TNF = assay: PBMC assay, TNF release after LPS stimulation; assay type: cell-based; conditions: human PBMCs, 30 min preincubation, 100 ng/ml LPS for 6 hrs, supernatant, MSD technology
Procedure: as §1, §2

SMILES | AC50 (IL-1β) | AC50 (TNF)
CC(C)c1nn(CC(=O)Nc2ccc3nncn3c2)c(=O)cc1N1CC2(C1)CC(F)(F)C2 [Compound 53] | > 20 µM | > 20 µM
CC(C)c1nn(CC(=O)Nc2ccc3nncn3c2)c(=O)cc1N1CCCCC1C (stereo not drawn) [Compound 54] | 3.62 µM | > 20 µM
CC(C)c1nn(CC(=O)Nc2ccc3nncn3c2)c(=O)cc1N1CCC[C@H](C)C1 [Compound 55] | 0.51 µM | > 20 µM
CC1CC(C)CN(c2cc(=O)n(CC(=O)Nc3ccc4nncn4c3)nc2C(C)C)C1 (stereo not drawn) [Compound 56] | 0.64 µM | 16 µM
CC(C)c1nn(CC(=O)Nc2ccc3nncn3c2)c(=O)cc1N1CCC(Cc2ccncc2)C1 (stereo not drawn) [Compound 57] | > 20 µM | > 20 µM
CC(C)c1nn(CC(=O)Nc2ccc3nncn3c2)c(=O)cc1N1CCC2(C1)CC2(F)F (stereo not drawn) [Compound 58] | 0.89 µM | > 20 µM
CC(C)c1nn(CC(=O)Nc2ccc3nncn3c2)c(=O)cc1N1CCC(Oc2ccccn2)C1 (stereo not drawn) [Compound 59] | 9.92 µM | 16.1 µM
CC(C)c1nn(CC(=O)Nc2ccc3nncn3c2)c(=O)cc1N1CCCC(F)C1 (stereo not drawn) [Compound 60] | 1.59 µM | 19.1 µM
CC(C)c1nn(CC(=O)Nc2ccc3nncn3c2)c(=O)cc1N1CCC2(CC1)CC2(F)F [Compound 61] | 19.5 µM | > 20 µM
CC(C)c1nn(CC(=O)Nc2ccc3nncn3c2)c(=O)cc1N1CCC[C@@H]1Cn1ccnc1 [Compound 62] | > 20 µM | > 20 µM
CC(C)c1nn(CC(=O)Nc2ccc3nncn3c2)c(=O)cc1N1CCCC1Cc1ccccn1 (stereo not drawn) [Compound 63] | 1.28 µM | > 20 µM
CC(C)c1nn(CC(=O)Nc2ccc3nncn3c2)c(=O)cc1N1CCC(c2nccs2)C1 (stereo not drawn) [Compound 64] | 15.1 µM | > 20 µM
CC(C)c1nn(CC(=O)Nc2ccc3nncn3c2)c(=O)cc1N1CCC(c2ccncc2)C1 (stereo not drawn) [Compound 65] | > 20 µM | > 20 µM
CC(C)c1nn(CC(=O)Nc2ccc3nncn3c2)c(=O)cc1NC1CC1 [Compound 66] | > 20 µM | > 20 µM
CC(C)c1nn(CC(=O)Nc2ccc3nncn3c2)c(=O)cc1N(C)C1CC1 [Compound 67] | 10.2 µM | > 20 µM

Reference: patent US20240174670A1, “4-AMINO-6-OXO-PYRIDAZINE DERIVATIVES MODULATING NLRP3” (JANSSEN PHARMACEUTICA NV, priority 2021, published 2024)
